Measured values: ChEMBL document CHEMBL6083210, “Exploring apoptotic induction of malabaricone A in triple-negative breast cancer cells: an acylphenol phyto-entity isolated from the fruit rind of Myristica malabarica Lam” (RSC Med Chem, 2024)

Columns and labels:
Assay type in all cases: functional, cell-based
MCF-10A = assay: Antiproliferative activity against human MCF-10A cells assessed as reduction in cell viability incubated for 24 hrs by MTT assay
SK-BR-3 = assay: Antiproliferative activity against human SK-BR-3 cells assessed as reduction in cell viability incubated for 24 hrs by MTT assay; conditions: SK-BR-3, 24 h
MDA-MB-231 = assay: Antiproliferative activity against human MDA-MB-231 cells assessed as reduction in cell viability incubated for 24 hrs by MTT assay; conditions: MDA-MB-231, 24 h

SMILES: O=C(CCCCCCCCc1ccc2c(c1)OCO2)c1c(O)cccc1O
- IC50 (MCF-10A): 82.6 µM
- IC50 (SK-BR-3): 9.3 µM
- IC50 (MDA-MB-231): 15.1 µM

SMILES: COc1cccc2c1C(=O)c1c(O)c3c(c(O)c1C2=O)C[C@@](O)(C(=O)CO)C[C@@H]3O[C@H]1C[C@H](N)[C@H](O)[C@H](C)O1 [DOXORUBICIN]
- IC50 (MCF-10A): 35.2 µM
- IC50 (SK-BR-3): > 50 µM
- IC50 (MDA-MB-231): 20.8 µM
